ChEMBL document CHEMBL5126592, “Design, synthesis and activity against drug-resistant bacteria evaluation of C-20, C-23 modified 5-O-mycaminosyltylonolide derivatives” (Eur J Med Chem, 2022)
Values after ≈ are worked out from the molar mass of the structure shown. Active and inactive are the calls of the source. The rule behind the calls is not given here.

Columns and labels:
[1] = Genotoxicity in Salmonella typhimurium TA102 assessed as number of revertants at 1x10^-3 mg/plate incubated for 72 hrs in presence of liver S9 fraction by Ames test (reference value: 465.33 +/- 18.04); type: toxicity, subcellular; details: salmonella enterica subsp. enterica serovar typhimurium, s9, 72 h
[2] = Genotoxicity in Salmonella typhimurium TA1537 assessed as number of revertants at 2x10^-4 mg/plate incubated for 72 hrs in absence of liver S9 fraction by Ames test (reference value: 22.67 +/- 2.52); type: toxicity; details: salmonella enterica subsp. enterica serovar typhimurium, s9, 72 h
[3] = Genotoxicity in Salmonella typhimurium TA100 assessed as number of revertants at 2x10^-4 mg/plate incubated for 72 hrs in absence of liver S9 fraction by Ames test (reference value: 221.67 +/- 15.57); type: toxicity; details: salmonella enterica subsp. enterica serovar typhimurium, s9, 72 h
Staphylococcus aureus [4] = assay: Antibacterial activity against Staphylococcus aureus ATCC 29213 at pH 6.6 incubated for 16 to 20 hrs by broth microdilution method; type: functional; details: time 16-20 hrs
Staphylococcus aureus [5] = assay: Antibacterial activity against Staphylococcus aureus ATCC 29213 at pH 8.6 incubated for 16 to 20 hrs in absence of foetal bovine serum by broth microdilution method; type: functional; details: time 16-20 hrs
Enterococcus faecium = assay: Antibacterial activity against Enterococcus faecium incubated for 16 to 20 hrs by broth microdilution method; type: functional; details: time 16-20 hrs
Escherichia coli [6] = assay: Antibacterial activity against Escherichia coli ATCC 25922 incubated for 16 to 20 hrs in absence of foetal bovine serum by broth microdilution method; type: functional; details: time 16-20 hrs
Escherichia coli [7] = assay: Bactericidal activity against Escherichia coli ATCC 25922 incubated for 20 to 24 hrs by CLSI based analysis; type: functional; details: time 20-24 hrs
[8] = Genotoxicity in Salmonella typhimurium TA1535 assessed as number of revertants at 1x10^-3 mg/plate incubated for 72 hrs in presence of liver S9 fraction by Ames test (reference value: 15.33 +/- 2.52); type: toxicity, subcellular; details: salmonella enterica subsp. enterica serovar typhimurium, s9, 72 h
Staphylococcus aureus [9] = assay: Antibacterial activity against Staphylococcus aureus ATCC 29213 incubated for 16 to 20 hrs using 10^7 CFU/ml bacterial inoculum by broth microdilution method; type: functional; details: time 16-20 hrs
Staphylococcus aureus [10] = assay: Antibacterial activity against Staphylococcus aureus ATCC 29213 incubated for 16 to 20 hrs using 10^5 CFU/ml bacterial inoculum by broth microdilution method; type: functional; details: time 16-20 hrs
[11] = Genotoxicity in Salmonella typhimurium TA100 assessed as number of revertants at 1.6x10^-6 mg/plate incubated for 72 hrs in presence of liver S9 fraction by Ames test (reference value: 204.33 +/- 8.14); type: toxicity, subcellular; details: salmonella enterica subsp. enterica serovar typhimurium, s9, 72 h
[12] = system: Streptococcus dysgalactiae; assay: Antibacterial activity against Streptococcus dysgalactiae incubated for 16 to 20 hrs by broth microdilution method; type: functional; details: time 16-20 hrs
Staphylococcus aureus [13] = assay: Antibacterial activity against Staphylococcus aureus ATCC 25923 infected in kunming mouse assessed as reduction in lung congestion at 20 to 40 mg/kg, iv measured after 1 hr by hematoxylin and eosin staining based microscopic analysis; type: functional, organism-based; details: dose 20-40 mg/kg
Staphylococcus aureus [14] = assay: Antibacterial activity against Staphylococcus aureus ATCC 29213 at pH 8.6 incubated for 16 to 20 hrs in presence of 5% foetal bovine serum by broth microdilution method; type: functional; details: time 16-20 hrs
[15] = Genotoxicity in Salmonella typhimurium TA98 assessed as number of revertants at 8x10^-6 mg/plate incubated for 72 hrs in absence of liver S9 fraction by Ames test (reference value: 57.33 +/- 3.06); type: toxicity; details: salmonella enterica subsp. enterica serovar typhimurium, s9, 72 h
[16] = Genotoxicity in Salmonella typhimurium TA100 assessed as number of revertants at 1.6x10^-6 mg/plate incubated for 72 hrs in absence of liver S9 fraction by Ames test (reference value: 221.67 +/- 15.57); type: toxicity; details: salmonella enterica subsp. enterica serovar typhimurium, s9, 72 h
[17] = Genotoxicity in Salmonella typhimurium TA1535 assessed as number of revertants at 2x10^-4 mg/plate incubated for 72 hrs in absence of liver S9 fraction by Ames test (reference value: 14.33 +/- 0.58); type: toxicity; details: salmonella enterica subsp. enterica serovar typhimurium, s9, 72 h
[18] = Toxicity in Kunming mouse infected with Staphylococcus aureus ATCC 25923 assessed as intact lung tissue structure at 20 to 40 mg/kg, iv measured after 1 hr by hematoxylin and eosin staining based microscopic analysis; type: organism-based; details: in vivo, dose 20-40 mg/kg
Staphylococcus aureus [19] = assay: Antibacterial activity against Staphylococcus aureus ATCC 29213 incubated for 16 to 20 hrs using 10^6 CFU/ml bacterial inoculum by broth microdilution method; type: functional; details: time 16-20 hrs
Escherichia coli [20] = assay: Antibacterial activity against Escherichia coli ATCC 25922 incubated for 16 to 20 hrs by broth microdilution method; type: functional; details: time 16-20 hrs
[21] = Genotoxicity in Salmonella typhimurium TA98 assessed as number of revertants at 1.6x10^-6 mg/plate incubated for 72 hrs in absence of liver S9 fraction by Ames test (reference value: 57.33 +/- 3.06); type: toxicity; details: salmonella enterica subsp. enterica serovar typhimurium, s9, 72 h
Escherichia coli [22] = assay: Antibacterial activity against Escherichia coli ATCC 25922 at pH 7.8 incubated for 16 to 20 hrs by broth microdilution method; type: functional; details: time 16-20 hrs
Staphylococcus aureus [23] = assay: Antibacterial activity against Staphylococcus aureus ATCC 29213 at pH 7 incubated for 16 to 20 hrs by broth microdilution method; type: functional; details: time 16-20 hrs
[24] = Toxicity in Kunming mouse infected with Staphylococcus aureus ATCC 25923 assessed as normal alveolar wall thickness at 20 to 40 mg/kg, iv measured after 1 hr by hematoxylin and eosin staining based microscopic analysis; type: organism-based; details: in vivo, dose 20-40 mg/kg
Escherichia coli [25] = assay: Antibacterial activity against Escherichia coli ATCC 25922 incubated for 16 to 20 hrs using 10^7 CFU/ml bacterial inoculum by broth microdilution method; type: functional; details: time 16-20 hrs
[26] = Genotoxicity in Salmonella typhimurium TA98 assessed as number of revertants at 4x10^-5 mg/plate incubated for 72 hrs in presence of liver S9 fraction by Ames test (reference value: 43.67+/- 7.1); type: toxicity, subcellular; details: salmonella enterica subsp. enterica serovar typhimurium, s9, 72 h
Escherichia coli [27] = assay: Antibacterial activity against Escherichia coli ATCC 25922 at pH 7.4 incubated for 16 to 20 hrs by broth microdilution method; type: functional; details: time 16-20 hrs
[28] = Genotoxicity in Salmonella typhimurium TA1535 assessed as number of revertants at 1x10^-3 mg/plate incubated for 72 hrs in absence of liver S9 fraction by Ames test (reference value: 14.33 +/- 0.58); type: toxicity; details: salmonella enterica subsp. enterica serovar typhimurium, s9, 72 h
Staphylococcus aureus [29] = assay: Antibacterial activity against Staphylococcus aureus ATCC 29213 incubated for 16 to 20 hrs using 10^3 CFU/ml bacterial inoculum by broth microdilution method; type: functional; details: time 16-20 hrs
[30] = Genotoxicity in Salmonella typhimurium TA1537 assessed as number of revertants at 2x10^-4 mg/plate incubated for 72 hrs in presence of liver S9 fraction by Ames test (reference value: 20 +/- 5); type: toxicity, subcellular; details: salmonella enterica subsp. enterica serovar typhimurium, s9, 72 h
Escherichia coli [31] = assay: Antibacterial activity against Escherichia coli ATCC 25922 incubated for 16 to 20 hrs in presence of 10% foetal bovine serum by broth microdilution method; type: functional; details: time 16-20 hrs
[32] = Genotoxicity in Salmonella typhimurium TA102 assessed as number of revertants at 4x10^-5 mg/plate incubated for 72 hrs in presence of liver S9 fraction by Ames test (reference value: 465.33 +/- 18.04); type: toxicity, subcellular; details: salmonella enterica subsp. enterica serovar typhimurium, s9, 72 h
Staphylococcus aureus [33] = assay: Antibacterial activity against Staphylococcus aureus ATCC 29213 at pH 7.8 incubated for 16 to 20 hrs by broth microdilution method; type: functional; details: time 16-20 hrs
Staphylococcus aureus [34] = assay: Antibacterial activity against Staphylococcus aureus ATCC 29213 incubated for 16 to 20 hrs using 10^4 CFU/ml bacterial inoculum by broth microdilution method; type: functional; details: time 16-20 hrs

Q: For `CC[C@H]1OC(=O)C[C@@H](O)[C@H](C)[C@@H](O[C@@H]2O[C@H](C)[C@@H](O)[C@H](N(C)C)[C@H]2O)[C@@H](CCN(C)Cc2cn(-c3cnc4ccccc4c3)nn2)C[C@@H](C)C(=O)/C=C/C(C)=C/[C@@H]1CN1CCCCCC1`, which Activity [1] is on record?
A: 449.33

Q: What about the Activity [2] of the same compound?
A: 15.67

Q: What about the Activity [3] of the same compound?
A: 223.33

Q: What about the MIC (Staphylococcus aureus [4]) of the same compound?
A: 32 µg/mL (≈ 35.5 µM)

Q: And the MIC (Staphylococcus aureus [5])?
A: 0.25 µg/mL (≈ 0.277 µM)

Q: And the MIC (Enterococcus faecium)?
A: 1 µg/mL (≈ 1.11 µM)

Q: What about the MIC (Escherichia coli [6]) of the same compound?
A: 1 µg/mL (≈ 1.11 µM)

Q: What about the MBC (Escherichia coli [7]) of the same compound?
A: 2 µg/mL (≈ 2.22 µM)

Q: What about the Activity [8] of the same compound?
A: 11

Q: What about the MIC (Staphylococcus aureus [9]) of the same compound?
A: 0.25 µg/mL (≈ 0.277 µM)

Q: What about the MIC (Staphylococcus aureus [10]) of the same compound?
A: 0.125 µg/mL (≈ 0.139 µM)

Q: And the Activity [11]?
A: 162.67

Q: What about the MIC [12] of the same compound?
A: 0.25 µg/mL (≈ 0.277 µM)

Q: What about the Activity (Staphylococcus aureus [13]) of the same compound?
A: Active

Q: What about the MIC (Staphylococcus aureus [14]) of the same compound?
A: 0.5 µg/mL

Q: What about the Activity [15] of the same compound?
A: 63.33

Q: What about the Activity [16] of the same compound?
A: 157.67

Q: And the Activity [17]?
A: 10.33

Q: And the Activity [18]?
A: Non-Toxic

Q: And the MIC (Staphylococcus aureus [19])?
A: 0.25 µg/mL (≈ 0.277 µM)

Q: And the MIC (Escherichia coli [20])?
A: 1 µg/mL (≈ 1.11 µM)

Q: And the Activity [21]?
A: 64.33

Q: And the MIC (Escherichia coli [22])?
A: 0.5 µg/mL (≈ 0.554 µM)

Q: And the MIC (Staphylococcus aureus [23])?
A: 2 µg/mL (≈ 2.22 µM)

Q: What about the Activity [24] of the same compound?
A: Non-Toxic

Q: And the MIC (Escherichia coli [25])?
A: 1 µg/mL (≈ 1.11 µM)

Q: What about the Activity [26] of the same compound?
A: 44.67

Q: And the MIC (Escherichia coli [27])?
A: 1 µg/mL (≈ 1.11 µM)

Q: And the Activity [28]?
A: 5

Q: And the MIC (Staphylococcus aureus [29])?
A: 0.0625 µg/mL (≈ 0.0693 µM)

Q: And the Activity [30]?
A: 15

Q: And the MIC (Escherichia coli [31])?
A: 2 µg/mL

Q: And the Activity [32]?
A: 433.33

Q: And the MIC (Staphylococcus aureus [33])?
A: ≤ 0.0625 µg/mL

Q: And the MIC (Staphylococcus aureus [34])?
A: 0.125 µg/mL (≈ 0.139 µM)
